Test system: Hepatocyte spheroids
Experiment: Cell viability is assessed by cellular ATP assay using CellTiter-Glo Luminescent kit. Viability is expressed as average RLU from biological replicates and normalized to negative control.Toxicity is defined as those with normalized ATP significantly less than 80 percent of the negative control.
Type: functional, Homo sapiens
Parameters: unit not given here

CCC(=O)N1CCOc2c(cc(-c3ccc(OC)c(OC)c3)cc2OCC2CCCN(C)C2)C1 (stereo not drawn)
Proliferation (Concentration range 5nM-5uM): 0.8195

Cl.Cl.c1ccc([C@@H]2C[C@H]2NC2CCNCC2)cc1
Proliferation (Concentration range 1nM-1uM): 0.6494

O=C(Nc1ccc(I)cc1)N1CCC(n2c(=O)[nH]c3c(Br)cccc32)CC1
Proliferation: 0.001093

CCN(C(=O)CO)[C@H]1CN(/C(=N\C#N)Nc2cccc(OC(F)F)c2)N=C1c1ccc(Cl)c(Cl)c1
Proliferation (Concentration range 10nM-10uM): 0.05466

COc1ccc(CCc2nc3cc(-c4c(C)noc4C)ccc3n2C[C@H](C)N2CCOCC2)cc1Cl
Proliferation (Concentration range 3nM-3uM): 0.2022

Nc1nc(NC2CC2)cc(-c2cccc(Cl)c2Cl)n1
Proliferation: 0.05031

CCCOc1ccn2c(C(C)=O)cc(-c3ccccc3S(C)(=O)=O)c2c1
Proliferation (Concentration range 10nM-10uM): 0.6349

Nc1cc(N)c(NC(=O)Nc2ccc(C(=O)N[C@@H](CCC(=O)O)C(=O)O)cc2)c(=O)[nH]1
Proliferation: 0.01013

CN(C)C/C=C/C(=O)Nc1cc2c(Nc3ccc(F)c(Cl)c3)ncnc2cc1O[C@H]1CCOC1.O=C(O)/C=C\C(=O)O.O=C(O)/C=C\C(=O)O [AFATINIB DIMALEATE]
Proliferation: 0.1122

O=C(O)[C@H]1[C@H](Cn2nnc3ccccc3c2=O)CC[C@@H]1C(=O)c1ccc(OCCC2CCOCC2)cc1 [BAY-7598]
Proliferation: 0.03535

C[C@@H](NC(=O)Nc1cc2[nH]ncc2c(CO)n1)c1ccccc1 [ERKi]
Proliferation: 0.06922

Cc1cc2c(cc1N1C(=O)c3cccc4c(CCCO)ccc(c34)C1=O)n(C)c(=O)n2C
Proliferation: 0.07854

COc1c(C)cc(NC(=O)c2nn(Cc3ccc(F)cc3)c3c2CN(C(=O)c2ccc[nH]2)C[C@]3(C)C(N)=O)cc1C
Proliferation: 0.06587

From ChEMBL document CHEMBL5724564, “Patient-derived NASH model to assess the effects of chemical probes on hepatocyte regenerations” (2024)
